# “Also recorded” adds a separate entry of the source.
# Legend:
# [1] = system: leukemia, as well as other malignancies, including ascitic tumors; details: warm-blooded lower animals; cited from earlier work
# [2] = system: L1210 leukemia; test: Antitumor activity against L1210 leukemia in mice; format: in vivo, BD (2) F1 female mice; details: sc every 2 days times 5; for Mean Survival Time: untreated control 6.6 days
# [3] = Various in vitro assays (general statement); details: Tables I, II and III
# [4] = system: human mammary, lung and colon tumor xenografts; details: lung and colon tumor xenografts in nude mice; cited from earlier work
# [5] = system: experimental murine tumor models; details: compared with methotrexate or 10-deazaminopterin; cited from earlier work
# [6] = system: L1210 cells; test: Growth inhibition of L1210 cells; format: cell-based
# [7] = biological target: T1, dihydrofolate reductase derived from L1210 (Mus musculus, UniProt P00375); test: Inhibition of dihydrofolate reductase derived from L1210 cells; format: biochemical; details: comparison in words; listed as d,L isomer of 10-ethyl-10-deazaminopterin
# T1 construct: dihydrofolate reductase derived from L1210; endogenous in cells; host or cells: L1210 cells
# T1 sequence (P00375 1-187): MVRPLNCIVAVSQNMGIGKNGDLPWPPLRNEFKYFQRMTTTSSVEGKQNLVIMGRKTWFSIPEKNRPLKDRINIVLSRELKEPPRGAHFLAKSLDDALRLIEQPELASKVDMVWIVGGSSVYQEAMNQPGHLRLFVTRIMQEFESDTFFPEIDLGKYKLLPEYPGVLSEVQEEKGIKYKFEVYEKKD
# [8] = biological target: T2, transport protein of L1210 (Mus musculus, UniProt P41438); test: Transport (influx, efflux) in L1210 cells; format: cell-based; details: average of 3-6 runs, standard error less than 15%
# T2 sequence (P41438 1-512): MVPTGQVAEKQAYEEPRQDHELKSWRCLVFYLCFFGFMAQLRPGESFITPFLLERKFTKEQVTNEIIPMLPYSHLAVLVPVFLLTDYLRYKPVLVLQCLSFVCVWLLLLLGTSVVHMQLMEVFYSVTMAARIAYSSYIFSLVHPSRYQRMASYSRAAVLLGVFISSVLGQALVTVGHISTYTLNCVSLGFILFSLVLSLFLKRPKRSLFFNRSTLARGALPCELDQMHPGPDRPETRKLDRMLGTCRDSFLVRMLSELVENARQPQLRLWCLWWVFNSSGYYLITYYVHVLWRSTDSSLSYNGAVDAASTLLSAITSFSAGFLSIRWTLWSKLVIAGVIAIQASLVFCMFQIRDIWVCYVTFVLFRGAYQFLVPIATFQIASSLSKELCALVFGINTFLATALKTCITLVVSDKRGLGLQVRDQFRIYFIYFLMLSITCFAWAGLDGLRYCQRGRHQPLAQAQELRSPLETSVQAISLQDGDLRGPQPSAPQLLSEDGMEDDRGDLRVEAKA
# [9] = biological target: dihydrofolate reductase derived from L. casei (Lacticaseibacillus casei, UniProt P00381); test: DHFR inhibition, enzyme derived from L. casei; format: biochemical; details: relative to l,L-isomer
# [10] = 9 mg/kg, listed as racemic mixture
# [11] = 12 mg/kg, listed as racemic mixture
# [12] = 18 mg/kg, listed as racemic mixture
# [13] = 24 mg/kg, listed as racemic mixture
# dihydrofolate reductase derived from L. casei, sequence (P00381 whole entry): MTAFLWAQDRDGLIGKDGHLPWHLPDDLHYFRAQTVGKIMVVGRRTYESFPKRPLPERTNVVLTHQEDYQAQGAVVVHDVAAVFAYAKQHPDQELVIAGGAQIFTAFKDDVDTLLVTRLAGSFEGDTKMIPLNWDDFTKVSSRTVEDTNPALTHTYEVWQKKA
structure (smiles),measurement,setting,value
Nc1nc(N)c2nc(CCc3ccc(C(=O)NC(CCC(=O)O)C(=O)O)cc3)cnc2n1 (stereo not drawn) [10-deazaminopterin],"amelioration of leukemia and other malignancies, including ascitic tumors",[1],can be ameliorated
CCC(Cc1cnc2nc(N)nc(N)c2n1)c1ccc(C(=O)N[C@@H](CCC(=O)O)C(=O)O)cc1 (stereo partly drawn) [10-ethyl-10-deazaminopterin],30-day survivors,[2]; [10],0/10
same,Increased Life Span,[2]; [10],+135%
same,Toxic deaths,[2]; [10],0/10
same,Mean Survival Time,[2]; [10],15.5 ± 0.6 days
same,30-day survivors,[2]; [11],0/10
same,Increased Life Span,[2]; [11],+153%
same,Toxic deaths,[2]; [11],0/10
same,Mean Survival Time,[2]; [11],16.7 ± 0.7 days
same,30-day survivors,[2]; [12],0/10
same,Increased Life Span,[2]; [12],+193%
same,Toxic deaths,[2]; [12],0/10
same,Mean Survival Time,[2]; [12],19.3 ± 0.8 days
same,30-day survivors,[2]; [13],2/10
same,Increased Life Span,[2]; [13],> +207%
same,Toxic deaths,[2]; [13],2/10
same,Mean Survival Time,[2]; [13],20.3 ± 1.9 days
same,30-day survivors,[2]; 32 mg/kg,0/10
same,Increased Life Span,[2]; 32 mg/kg,+67%
same,Toxic deaths,[2]; 32 mg/kg,10/10
same,Mean Survival Time,[2]; 32 mg/kg,16.0 ± 1.1 days
same,"inhibitory activity in the various in vitro assays, comparison",[3],"intermediate between the values for the resolved d,L and l,L diasteromers"
same,regression of human tumor xenografts,[4],frank regressions
same,effectiveness in experimental murine tumor models,[5],considerably more effective than methotrexate or 10-deazaminopterin
"CCC(Cc1cnc2nc(N)nc(N)c2n1)c1ccc(C(=O)N[C@@H](CCC(=O)O)C(=O)O)cc1 (stereo partly drawn) [d, L-10-ethyl, d,L-10-ethyl-10-deazaminopterin]",IC50,"[6]; Mus musculus, L1210, L1210 cells, average of 3-6 runs, standard error less than 15%, read-out: growth inhibn (minimum inhibitory concentration50)",0.43 nM
same,"inhibition of growth for L1210 cells, comparison between isomers",[6]; comparison in words,significantly more effective
same,"inhibition of dihydrofolate reductase derived from L1210, comparison between isomers",[7],"significantly more effective; also recorded: three-fold difference between l,L and d,L isomers"
same,transport efflux k,[8],0.253 min⁻¹
same,30-day survivors,"[2]; 9 mg/kg, listed as d, L",0/6
same,Increased Life Span,"[2]; 9 mg/kg, listed as d, L",+177%
same,Toxic deaths,"[2]; 9 mg/kg, listed as d, L",0/6
same,Mean Survival Time,"[2]; 9 mg/kg, listed as d, L",18.3 ± 1.7 days
same,30-day survivors,"[2]; 12 mg/kg, listed as d, L",0/9
same,Increased Life Span,"[2]; 12 mg/kg, listed as d, L",+199%
same,Toxic deaths,"[2]; 12 mg/kg, listed as d, L",3/9
same,Mean Survival Time,"[2]; 12 mg/kg, listed as d, L",19.8 ± 2.3 days
same,30-day survivors,"[2]; 18 mg/kg, listed as d, L",1/9
same,Increased Life Span,"[2]; 18 mg/kg, listed as d, L",> +165%
same,Toxic deaths,"[2]; 18 mg/kg, listed as d, L",5/9
same,Mean Survival Time,"[2]; 18 mg/kg, listed as d, L",17.5 ± 1.5 days
same,30-day survivors,"[2]; 24 mg/kg, listed as d, L",0/3
same,Increased Life Span,"[2]; 24 mg/kg, listed as d, L",+55%
same,Toxic deaths,"[2]; 24 mg/kg, listed as d, L",3/3
same,Mean Survival Time,"[2]; 24 mg/kg, listed as d, L",10.0 ± 0 days
same,"potency against the L. casei enzyme, d,L-isomer over l,L-isomer",[9],approximately three-fold greater potency
